Data reported in patent US11827917B1, “Methods for the conversion of fermentable sugars to ethanol” (Colorado State University Research Foundation, priority 2020, dated 2023).
Entries after “also recorded” stand apart in the source; their conditions may differ. Marks after values point to notes of the source that are not given here.

What was measured:
Format in all cases: cell-based, Saccharomyces cerevisiae
[1] = tested on: S. cerevisiae JAY 270; assay: Screening of growth in 24-well plates on YPDA; details: for Cell growth score (colony size): YPDA, 30° C., 24 h; for Effect on cell growth in the plate assay (words): tested concentrations, 24-well plates
Description: Procedure: An inoculum culture of S. cerevisiae JAY 270 was grown in 100 mL of yeast extract-peptone-dextrose (YPD) medium (10 g/L yeast extract, 20 g/L peptone, 20 g/L glucose) in 200-mL serum bottles overnight in a shaker at 30° C. and 200 rpm. The cells were collected by centrifuging 10 min at 4000×g and 4° C. To wash off the medium residue, the cell pellet was resuspended in 30 mL of sterile 0.8% (w/v) NaCl solution and centrifuged at 4000×g for 10 min. The cell pellet was washed twice. Finally, the cell pellet was resuspended and diluted in 0.8% (w/v) NaCl to achieve cell concentrations of OD600=0.02 and 0.2.
The eight compounds were added in YPDA separately at 0.03%, 0.05%, 0.1%, and 0.2% (w/v). The standard control treatment contained only YPDA medium without addition of these compounds. Since the TrpOH and TyrOH stock solutions were dissolved in DMSO, the controls for those tests were YPDA with the same concentration of DMSO. A 3-mL aliquot of YPDA medium with or without the test compounds were loaded in each well of the 24-well plate.
Ten μL of the prepared S. cerevisiae JAY 270 cell suspension at OD600=0.02 or 0.2 was loaded onto the YPDA medium in each well of the 24-well plates. Then the plates were sealed with Parafilm and incubated at 30° C. for 24 h. There were four biological replicates for each treatment.
Yeast cell growth was evaluated by visual observation of the colony size in the well and scored as 0, +, ++, and +++.

[2] = tested on: S. cerevisiae JAY 270; assay: Growth test in liquid YNB medium, low/high nitrogen, serum bottles; details: 40, 200, 1000 mg/L; low and high nitrogen media
Description: A second set of tests was performed in a defined liquid medium, Yeast Nitrogen Base with Glucose (YNB), containing (NH4)2SO4 at either low (1 mM) or high (10 mM) nitrogen content. […] All serum bottles were incubated in a shaker at 30° C. and 150 RPM. Each treatment was performed in biological duplicate. Samples were collected at 0, 5, and 10 hours.

[3] = tested on: S. cerevisiae JAY 270; assay: Serum-bottle cultivation in YPD: biomass, glycerol, ethanol yields; details: YPD, serum bottles
Description: Procedure: Cultivations in serum bottles were used to determine the effect of the best-performing screened chemicals on the ethanol yield. S. cerevisiae JAY 270 was pre-cultured in 100 mL of YPD medium in 200-mL serum bottles overnight in a shaker at 30° C. and 200 rpm. The precultured yeast cells were collected and washed twice as described above. The cell pellet was resuspended in about 10 mL of 0.8% (w/v) NaCl and the cell concentration was estimated as OD600. TyrOH, PheOH, and TrpOH were added to 30 mL of YPD medium in 100-mL serum bottles at 0.05% and 0.2% respectively. The same amount of DMSO was added to YPD medium to serve as the control for TrpOH and TyrOH treatments. The bottles were inoculated with the prepared yeast cells to obtain an initial cell concentration of OD600=0.2. The serum bottles were sealed and cultured in a shaker at 30° C. and 200 rpm for 24 h. Each condition had three biological replicates.
Analytical methods: Cell growth was evaluated by monitoring OD600 and cell dry mass concentration. For dry mass measurements, 1.0 mL of culture was transferred to a pre-dried and pre-weighed 2-mL centrifuge tube. The tubes were centrifuged for 10 min at 14000 rpm using a microcentrifuge, and then the cell pellets were dried in an oven for 3 days at 65° C. The cell dry mass was determined by subtracting the initial tube mass from the dried mass of tube with cells. The concentrations of glucose, ethanol, and glycerol were measured via HPLC (Shimadzu LC20A series) outfitted with a refractive index detector and using an Aminex HPX-87H (300×7.8 mm) organic acid column and Cation H+ guard cartridge (Bio Rad Laboratories, Hercules, CA). The column was maintained at 65° C. and the mobile phase was 5 mM sulfuric acid with a flow rate of 0.6 mL/min. Standard compound solutions were used to calibrate the HPLC. Each sample was analyzed three times by HPLC.

For `CC(C)=CCCC(C)=CCCC(C)=CCO` [Farnesol, farnesol], the “Cell growth score (colony size)” value ([1]; 0.03% (w/v)) was “+++”, the “Cell growth score (colony size)” value ([1]; 0.05% (w/v)) was “+++” and the “Cell growth score (colony size)” value ([1]; 0.10% (w/v)) was “+++”. The “Cell growth score (colony size)” value ([1]; 0.20% (w/v)) was “+++” and the “Effect on cell growth in the plate assay (words)” value (shortened to “Effect on cell growth”) [1] was “did not inhibit cell growth”.
For `CP(=O)(O)CCC(N)C(=O)O` (stereo not drawn) [Glufosinate ammonium, glufosinate ammonium], the “Cell growth score (colony size)” value ([1]; 0.03% (w/v)) was “+++”, the “Cell growth score (colony size)” value ([1]; 0.05% (w/v)) was “+++” and the “Cell growth score (colony size)” value ([1]; 0.10% (w/v)) was “+++”. The “Cell growth score (colony size)” value ([1]; 0.20% (w/v)) was “+++” and the “Effect on cell growth” value [1] was “did not inhibit cell growth”.
`OB(O)O` [Boric acid, reference compound] was tested, and the “Cell growth score (colony size)” value ([1]; 0.03% (w/v)) was “+++”, the “Cell growth score (colony size)” value ([1]; 0.05% (w/v)) was “+++” and the “Cell growth score (colony size)” value ([1]; 0.10% (w/v)) was “++”. For the same molecule, the “Cell growth score (colony size)” value ([1]; 0.20% (w/v)) was “+”, the “Effect on cell growth” value [1] was “inhibited growth; also recorded: reduced the growth” and the “Inhibitory effect on yeast cell growth in liquid YNB medium” value [2] was “little or no growth inhibition effects”. The Biomass Yield ([3]; 0.05% (w/v)) was 0.137 + 0.001 g/g, the “Biomass yield % change vs. control” value ([3]; 0.05% (w/v)) was 0% and the EtOH yield ([3]; 0.05% (w/v)) was 0.41 ± 0.00 g/g. The “EtOH yield % change vs. control” value ([3]; 0.05% (w/v)) was 0%, the Glycerol yield ([3]; 0.05% (w/v)) was 0.024 ± 0.001 g/g and the “Glycerol yield % change vs. control” value ([3]; 0.05% (w/v)) was 0%. The “Biomass yield vs. reference” value ([3]; 0.05%) was 0%, the Ethanol yield ([3]; 0.05%) was 0.41 ± 0.00 g/g and the “Ethanol yield vs. reference” value ([3]; 0.05%) was 0%. The Glycerol yield ([3]; 0.05%) was 0.024 ± 0.001 g/g, the “Glycerol yield vs. reference” value ([3]; 0.05%) was −6.3% and the OD600 ([3]; 0.05%) was 4.78. The “Effect on ethanol yield” value ([3]; 0.05 and 0.2%) was “did not affect ethanol yield”, the Biomass Yield ([3]; 0.2% (w/v)) was 0.116 + 0.001 g/g and the “Biomass yield % change vs. control” value ([3]; 0.2% (w/v)) was −15* %. For the same molecule, the EtOH yield ([3]; 0.2% (w/v)) was 0.41 ± 0.00 g/g, the “EtOH yield % change vs. control” value ([3]; 0.2% (w/v)) was 0% and the Glycerol yield ([3]; 0.2% (w/v)) was 0.027 ± 0.001 g/g. The “Glycerol yield % change vs. control” value ([3]; 0.2% (w/v)) was 6.9%, the “Biomass yield vs. reference” value ([3]; 0.2%) was −15.3% and the Ethanol yield ([3]; 0.2%) was 0.41 ± 0.00 g/g. For the same molecule, the “Ethanol yield vs. reference” value ([3]; 0.2%) was 0%, the Glycerol yield ([3]; 0.2%) was 0.027 ± 0.000 g/g and the “Glycerol yield vs. reference” value ([3]; 0.2%) was 6.9%. The OD600 ([3]; 0.2%) was 3.96.
`C[C@@H]1C[C@@H]([C@H](O)CC2CC(=O)NC(=O)C2)C(=O)[C@@H](C)C1` [Cycloheximide, cycloheximide, reference compound] was tested, and the “Cell growth score (colony size)” value ([1]; 0.03% (w/v)) was 0, the “Cell growth score (colony size)” value ([1]; 0.05% (w/v)) was 0 and the “Cell growth score (colony size)” value ([1]; 0.10% (w/v)) was 0. The “Cell growth score (colony size)” value ([1]; 0.20% (w/v)) was 0, the “Effect on cell growth” value [1] was “inhibited all cell growth at all tested concentrations” and the “Effect on cell growth” value ([1]; listed as cycloheximide) was “inhibited growth; also recorded: reduced the growth”. The “Biomass yield % change vs. control” value ([3]; 0.1 mg/L) was −12* %, the “Biomass yield vs. reference” value ([3]; 0.1 mg/L) was −36.1% and the “Effect on ethanol yield” value ([3]; 0.1 mg/L) was “slight decrease of ethanol yield”. The EtOH yield ([3]; 0.1 mg/L) was 0.42 ± 0.01 g/g, the “EtOH yield % change vs. control” value ([3]; 0.1 mg/L) was −3.5% and the Ethanol yield ([3]; 0.1 mg/L) was 0.42 ± 0.01 g/g. The “Ethanol yield vs. reference” value ([3]; 0.1 mg/L) was 0%, the “Glycerol yield % change vs. control” value ([3]; 0.1 mg/L) was −48* % and the “Glycerol yield vs. reference” value ([3]; 0.1 mg/L) was 0.4%. For the same molecule, the OD600 ([3]; 0.1 mg/L) was 2.82 and the OD600 ([3]; 0.4 mg/L) was 0.22.
With `Nc1nc[nH]n1` [3-amino-1,2,4-triazole] the “Cell growth score (colony size)” value ([1]; 0.03% (w/v)) was “+++”, the “Cell growth score (colony size)” value ([1]; 0.05% (w/v)) was “+++” and the “Cell growth score (colony size)” value ([1]; 0.10% (w/v)) was “+++”. For the same molecule, the “Cell growth score (colony size)” value ([1]; 0.20% (w/v)) was “+++” and the “Effect on cell growth” value [1] was “did not inhibit cell growth”.
